Measurements as given in ChEMBL document CHEMBL3045406, “Enantioselective Relieving Activity of α-Methylbenzylphenylureas toward Bensulfuron-methyl Injury to Rice (Oryza sativa)” (Biosci Biotechnol Biochem, 1999).

What was measured:
Oryza sativa [1] = experiment: Safener indices, ratio of compound effect of Oryza sativa (rice) growth rate to relieving activity against bensulfuron-methyl induced injury to Oryza sativa growth rate at 1 uM
Oryza sativa [2] = experiment: Effect on Oryza sativa (rice) assessed as growth rate at 10 uM relative to control; format: organism-based; details: in vivo
Oryza sativa [3] = experiment: Effect on Oryza sativa (rice) assessed as growth rate at 0.1 uM relative to control; format: organism-based; details: in vivo
Oryza sativa [4] = experiment: Safener indices, ratio of compound effect of Oryza sativa (rice) growth rate to relieving activity against bensulfuron-methyl induced injury to Oryza sativa growth rate at 0.1 uM
Oryza sativa [5] = experiment: Relieving activity against bensulfuron-methyl induced injury to Oryza sativa (rice) assessed as growth rate at 1 uM (Rbv = 46 to 53%); format: functional
Oryza sativa [6] = experiment: Safener indices, ratio of compound effect of Oryza sativa (rice) growth rate to relieving activity against bensulfuron-methyl induced injury to Oryza sativa growth rate at 10 uM
Oryza sativa [7] = experiment: Effect on Oryza sativa (rice) assessed as growth rate at 1 uM relative to control; format: organism-based; details: in vivo
Oryza sativa [8] = experiment: Relieving activity against bensulfuron-methyl induced injury to Oryza sativa (rice) assessed as growth rate at 10 uM (Rbv = 46 to 53%); format: functional
[9] = Hydrophobicity, log K of the compound; format: physicochemical; details: octanol/water
Oryza sativa [10] = experiment: Relieving activity against bensulfuron-methyl induced injury to Oryza sativa (rice) assessed as growth rate at 0.1 uM (Rbv = 46 to 53%); format: functional

| SMILES | Ratio (Oryza sativa [1]) | Activity (Oryza sativa [2]) | Activity (Oryza sativa [3]) | Ratio (Oryza sativa [4]) | Activity (Oryza sativa [5]) | Ratio (Oryza sativa [6]) | Activity (Oryza sativa [7]) | Activity (Oryza sativa [8]) | log K [9] | Activity (Oryza sativa [10]) |
| --- | --- | --- | --- | --- | --- | --- | --- | --- | --- | --- |
| C[C@@H](NC(=O)Nc1ccc(F)c(F)c1)c1ccccc1 | 21 | 96% | 99% | 4 | 60% | 47 | 99% | 73% | 0.398 | 52% |
| C[C@@H](NC(=O)Nc1cccc(Cl)c1Cl)c1ccccc1 | 58 | 99% | 100% | 14 | 80% | 78 | 100% | 89% | 0.646 | 59% |
| C[C@H](NC(=O)Nc1cccc(F)c1F)c1ccccc1 | 75 | 100% | 100% | 36 | 88% | 87 | 100% | 93% | 0.435 | 68% |
| CCCCc1ccc(NC(=O)N[C@H](C)c2ccccc2)cc1 | 26 | 28% | 100% | 13 | 38% | 16 | 32% | 28% | 0.76 | 57% |
| CCCCCCc1ccc(NC(=O)N[C@@H](C)c2ccccc2)cc1 | 11 | 99% | 99% | 6 | 54% | 25 | 100% | 61% | 1.081 | 51% |
| C[C@H](NC(=O)Nc1cc(F)cc(F)c1)c1ccccc1 | 58 | 99% | 99% | 30 | 79% | 85 | 99% | 93% | 0.452 | 64% |
| CCCCc1ccc(NC(=O)N[C@@H](C)c2ccccc2)cc1 | 50 | 60% | 98% | 21 | 68% | 37 | 72% | 56% | 0.76 | 60% |
| C[C@@H](NC(=O)Nc1ccc(F)cc1)c1ccccc1 | 16 | 92% | 98% | -3 | 55% | 52 | 96% | 73% | 0.307 | 47% |
| C[C@@H](NC(=O)Nc1cccc(C(F)(F)F)c1)c1ccccc1 | 41 | 70% | 82% | 26 | 63% | 50 | 72% | 68% | 0.542 | 57% |
| C[C@@H](NC(=O)Nc1cc(F)ccc1F)c1ccccc1 | 34 | 92% | 100% | 7 | 67% | 57 | 100% | 77% | 0.464 | 54% |
| C[C@H](NC(=O)Nc1ccc(F)cc1F)c1ccccc1 | 56 | 99% | 101% | 28 | 79% | 85 | 100% | 93% | 0.394 | 65% |
| C[C@@H](NC(=O)Nc1cccc(I)c1)c1ccccc1 | 44 | 73% | 81% | 26 | 66% | 53 | 75% | 71% | 0.568 | 57% |
| C[C@H](NC(=O)Nc1cccc(C(F)(F)F)c1)c1ccccc1 | 53 | 92% | 94% | 26 | 75% | 66 | 93% | 82% | 0.542 | 62% |
| CC(=O)c1ccc(NC(=O)N[C@H](C)c2ccccc2)cc1 | 27 | 84% | 96% | 4 | 59% | 65 | 93% | 79% | 0.227 | 49% |
| C[C@H](NC(=O)Nc1cc(C(F)(F)F)cc(C(F)(F)F)c1)c1ccccc1 | 33 | 86% | 101% | 13 | 65% | 44 | 95% | 69% | 0.831 | 57% |
| C[C@@H](NC(=O)Nc1ccc(Cl)c(Cl)c1)c1ccccc1 | 34 | 93% | 98% | 15 | 66% | 56 | 96% | 77% | 0.61 | 57% |
| C[C@@H](NC(=O)Nc1cc(F)cc(F)c1)c1ccccc1 | 20 | 96% | 98% | 10 | 59% | 33 | 98% | 65% | 0.452 | 54% |
| C[C@@H](NC(=O)Nc1c(Cl)cccc1Cl)c1ccccc1 | 19 | 100% | 100% | 12 | 61% | 21 | 99% | 61% | 0.326 | 57% |
| C[C@@H](NC(=O)Nc1ccccc1C(F)(F)F)c1ccccc1 | 11 | 54% | 99% | 10 | 54% | 42 | 95% | 58% | 0.456 | 55% |
| C[C@H](NC(=O)Nc1ccc(Br)cc1)c1ccccc1 | 59 | 96% | 98% | 24 | 79% | 69 | 97% | 84% | 0.488 | 62% |
| CCCCCCc1ccc(NC(=O)N[C@H](C)c2ccccc2)cc1 | 9 | 101% | 100% | 6 | 54% | 22 | 101% | 61% | 1.081 | 52% |
